The values that follow come from patent publication US10060189B2, “Hexadecene synthetic drilling fluid with improved environmental properties” (priority 2014, dated 2018).

Structures are written as SMILES.

One data set has as its system Leptocheirus plumulosus. Briefly: 10-day sediment toxicity test (EPA Method 1644). The data set is classed as in vivo. The text has this: The term “sediment toxicity” as used herein for drilling fluids and drill cuttings refers to EPA Method 1644: “Method for Conducting a Sediment Toxicity Test with Leptocheirus plumulosus and Non-Aqueous Drilling Fluids or Synthetic-Based Drilling Muds” and sediment preparation procedures specified in EPA Method 1646. EPA Method 1644 is published in “Analytic Methods for the Oil and Gas Extraction Point Source Category.” The 10-day Leptocheirus plumulosus toxicity test characterizing the sediment toxicity according to BAT (“Best Available Technology Economically Achievable) effluent limitations and NSPS (“New Source Performance Standards”) means the concentration (milligrams/kilogram dry sediment) of the base fluid in sediment that is lethal to 50 percent of the Leptocheirus plumulosus test organisms exposed to that concentration of the base fluids after ten days of constant exposure. The test is defined in ASTM Standard No. E1367-03 (2008) which is incorporated herein by reference.

Data set [1] is described as follows: 275-day anaerobic biodegradation test (modified ISO 11734). The text has this:
The term “biodegradation rate” as used herein for drilling fluids and drill cuttings is in connection with the method for performing the 275-day anaerobic biodegradation test and is defined in Federal Register, Part IV Environmental Protection Agency, 40 CFR Parts 9 and […] entitled “Effluent Limitations Guidelines and New Source Performance Standards for the Oil and Gas Extraction Point Source Category”, Fed. Reg. Vol. 66, No. 14, Jan. 22, 2001, Appendix 4 to Subpart A of Part 435, incorporated herein by reference. The 275-day anaerobic biodegradation test described in Appendix 4 to Subpart A of Part 435 is based on a modification of ISO Standard No. 11734:1995 (also incorporated herein by reference) for use in a marine environment.

Data set [2] is described as follows: Kinematic viscosity (ASTM D445-06). The data set is classed as physicochemical. On the procedure:
The phrase “kinematic viscosity” refers to a measurement of the resistance to the flow of a fluid. Many base oils, drilling fluid compositions made from them, and the correct operation of equipment depends upon the appropriate viscosity of the fluid being used. Kinematic viscosity is determined by ASTM D445-06. The results are reported in mm^2/s or centistoke. The term “centistoke,” abbreviated “cSt,” is a unit for kinematic viscosity of a fluid (e.g., a drilling fluid), wherein 1 centistoke equals 1 millimeter squared per second (1 cSt=1 mm^2/s). It is also the ratio of the dynamic viscosity of a fluid to the fluid density. See, e.g., ASTM Standard Guide and Test Methods D 2270-04, D 445-06, D 6074, and D 2983.

Another data set can be described thus: Flash point. The data set is classed as physicochemical.
A further data set in a line: Pour point (ASTM D97). It counts as physicochemical. The text has this:
The phrase “pour point” refers to the lowest temperature at which a fluid will pour or flow. (See, e.g., ASTM International Standard Test Method D97). The results are reported in degrees Celsius. Many commercial base oils have specifications for pour point. When base oils have low pour points, the base oils are also likely to have other good low temperature properties, such as low cloud point, and low cold flow viscosity.

The next data set can be described thus: Density. The data set is classed as physicochemical.

On to `C=CCCCCCCCCCCCCCC` [1-hexadecene], for which the “Sediment Toxicity L. plumulosus 10 day LC50 Compliance Ratio (Ref Fluid/Test Fluid)” value in the data set on Leptocheirus plumulosus (10 day, ratio reference fluid/test fluid, <1 passes) came to 0.35. The “EPA requirement in the 10-day sediment toxicity test” value in the data set with Leptocheirus plumulosus (in vivo) was “consistently passes”. Moreover, the “275 Day Anaerobic Biodegradation % Compliance Ratio (Ref Fluid/Test Fluid)” value in data set [1] (275 day, ratio reference fluid/test fluid, <1 passes) came out at 0.8. For the same molecule, the “EPA requirement in the 275 day anaerobic biodegradation test” value in data set [1] (versus C1618 IO standard) is reported as “consistently passes”. Also, in data set [2], the “Kinematic Viscosity at 40° C.” value came out at 2.4 cSt. In addition, the “Flash Point” value in “Flash point” was found to be 125 °C. The “Pour Point” value is 4 °C in “Pour point (ASTM D97)” (Table 2 and text); “+4 °C” in “Pour point (ASTM D97)” (Table 2 and text, listed as 1-hexadecene); 4 deg C in the data set “Pour point (ASTM D97)” (Table 3, blends by ratio C16 unbranched isomerized olefin to 1-hexadecene). Also, the “Depression in Pour Point Compared to 1-hexadecene” value in the data set “Pour point (ASTM D97)” (Table 3, compared to 1-hexadecene) amounted to 0 deg C. Besides, the Density in “Density” turned out to be 0.785 g/cc.
